Values joined by “and” are separate entries in the source; they are usually repeats but may differ in a detail not shown here. Equal entries are not always repeated. “Also recorded” adds a separate entry of the source. Where two headings read alike, the source gives them in different places.
What was measured:
[1] = system: LN229 MGMT+/−, MMR+/− cells; assay: Clonogenic cell survival assay; conditions: cell status given in the value
Procedure: Cells were trypsinized, washed, counted, and diluted in a medium containing various concentrations of drug. They were then immediately seeded in six-well plates in triplicate at three-fold dilutions, ranging from 9000 to 37 cells per well. Depending on colony size, these plates were kept in the incubator for 10 to 14 days. After incubation, colonies were washed in phosphate-buffered saline (PBS), stained with crystal violet, counted, and quantified.

Brain distribution study = assay type: in vivo, male C57BL/6 mice; conditions: PO 20 mg/kg, male C57BL/6 mice
Procedure: Compound KL50 dosing solution: 3.39% DMSO+96.61% (10% HP-β-CD in saline) at 2 mg/mL; • 1) Weigh 17.39 mg of compound KL50 into a clean tube. • 2) Add 0.295 mL DMSO into the tube containing the compound. • 3) Vortex the tube for 3 min and sonicate it for 4 min. • 4) Add 8.400 mL 10% HP-β-CD in saline into the tube and vortex the tube for 3 min. Compound I-1 dosing solution: 3.39% DMSO+96.61% (10% HP-β-CD in saline) at 2 mg/mL; • 1) Weigh 16.86 mg Compound I-1 into a clean tube. • 2) Add 0.286 mL DMSO into the tube containing the compound. • 3) Vortex the tube for 3 min and sonicate it for 4 min. • 4) Add 8.144 mL 10% HP-β-CD in saline into the tube and vortex the tube for 3 min.
The in-vivo pharmacokinetic and brain distribution study was conducted under the following parameters. Twenty seven C57BL/6 male mice were purchased from Shanghai JiHui Laboratory Animal Co. LTD. Each mouse weighted from 16 g to 17 g. The mice were fasted overnight and fed post 4 hr sampling. Compound KL50 and Compound I-I were administered via oral gavage (PO) at a dose of 20 mg/kg (10 mL/kg). After dosing, sampling was completed at 0.083, 0.167, 0.333, 0.5, 0.75, 1, 2, 4 and 8 hr post dose, with three mice sacrificed at each time point.
Terminal bleeding for plasma and brain was completed at each time point. Approximately 110 μL blood per time point was collected into a K2EDTA tube via the facial vein. The blood sample was put on wet ice and centrifuged to obtain plasma sample (2000 g, 5 min under 4° C.) within 15 minutes. Plasma samples were acidified with 6 μL of formic acid for every 54 μL of plasma. After blood collection, a mid-line incision was made in the animal's scalp and the skin was retracted. The skull overlying the brain was removed. Then, the whole brain was collected, rinsed with cold saline, dried on filtrate paper, and weighed; and then snap frozen by placing the brain into dry-ice. Plasma samples were stored at approximately −70° C. until analysis. Brain tissue was homogenized with 3 volumes (v/w) of PBS (1% FA) and then analyzed with LC-MS/MS. The concentration of study drug was corrected with a dilution factor of four as following: Brain concentration=brain homogenate conc.×4, assuming 1 g wet brain tissue equals to 1 mL

[2] = system: LN229 MGMT−/MMR+ and MGMT−/MMR− cells; assay: IR alkaline comet assay; assay type: cell-based, human
Procedure: IR Alkaline Comet Assay. Assay was performed utilizing the CometAssay Kit (Trevigen) according to the alkaline assay protocol, with the addition of slide irradiation post-lysis. Cells were trypsinized, washed with 1×PBS, added to melted Comet LMAgarose (Trevigen), and spread on Trevigen CometSlides at a density of 1000 cells per sample in 50 μL. Lysis solution (Trevigen) with 10% DMSO was added overnight at 4° C. Slides were removed from lysis buffer and irradiated to 0 or 10 Gy using an XRAD 320 X-Ray System (Precision X-Ray) at 320 kV, 12.5 mA, and 50.0 cm SSD, with a 2 mm Al filter and 20 cm×20 cm collimator. Slides were then placed in alkaline buffer (200 mM NaOH, 1 mM EDTA) for 45 min, followed by electrophoresis in 850 mL alkaline buffer for 45 min at 4° C. Slides were washed and stained with SYBR gold (Invitrogen) per Trevigen assay protocol. Slides were imaged on a Cytation 3 imaging reader (BioTek), and comets were analyzed using CometScore 2.0 software (TriTek).
We used a well-established comet assay adapted for ICL detection to determine if ICLs were formed in MGMT− cells treated with KL-50 (4a) (FIG. Z3, A and B). In this assay, cells were sequentially exposed to genotoxins and ionizing radiation, and then analyzed by single cell alkaline gel electrophoresis. Attenuation of the IR-induced comet tail is indicative of ICL formation.

[3] = system: Isogenic glioma (Ln 229) cells, MGMT−/MMR−; assay: Clonogenic Survival Assay (FIG. 9); assay type: cell-based, human; conditions: identical concentrations of test compound
Procedure: Clonogenic Survival Assay (FIG. 9): Isogenic glioma (Ln 229) cells were pretreated with the test drug in culture for 48-72 hours at the specified dilutions. Cells were then transferred in media without drug to 6-well plates in triplicate at 3-fold dilutions ranging from 9,000 to 37 cells per well. After 14 days, plates were washed with PBS and stained with crystal violet. Colonies were counted by hand. Counts were normalized to plating efficiency of the corresponding treatment condition.

NC(=O)c1ncn2c(=O)n(CCF)nnc12 [KL-50, 3-(2-fluoroethyl)-4-oxo-3H,4H-imidazo[4,3-d][1,2,3,5]tetrazine-8-carboxamide]
clonogenic survival (in words) [1]: robust antitumor activity in MGMT− cells, independent of MMR status; also recorded: minimal toxicity to MGMT+ cells at doses up to at least 200 μM
Brain Concentration/Plasma Concentration, Individuals (Brain distribution study; 0.083 hr, 20 mg/kg): 0.0770 and 0.0693
brain Concentration, Individuals (Brain distribution study; 0.083 hr, 20 mg/kg): 1970 ng/g and 1940 ng/g
Brain Concentration/Plasma Concentration, Individuals (Brain distribution study; 0.167 hr, 20 mg/kg): 0.123 and 0.156
brain Concentration, Individuals (Brain distribution study; 0.167 hr, 20 mg/kg): 2810 ng/g and 2820 ng/g
Brain Concentration/Plasma Concentration, Individuals (Brain distribution study; 0.333 hr, 20 mg/kg): 0.206 and 0.213
brain Concentration, Individuals (Brain distribution study; 0.333 hr, 20 mg/kg): 2980 ng/g and 4450 ng/g
Brain Concentration/Plasma Concentration, Individuals (Brain distribution study; 0.5 hr, 20 mg/kg): 0.260 and 0.250
brain Concentration, Individuals (Brain distribution study; 0.5 hr, 20 mg/kg): 3230 ng/g and 3830 ng/g
Brain Concentration/Plasma Concentration, Individuals (Brain distribution study; 0.75 hr, 20 mg/kg): 0.278 and 0.331
brain Concentration, Individuals (Brain distribution study; 0.75 hr, 20 mg/kg): 3060 ng/g and 3380 ng/g
Brain Concentration/Plasma Concentration, Individuals (Brain distribution study; 1 hr, 20 mg/kg): 0.345 and 0.266
brain Concentration, Individuals (Brain distribution study; 1 hr, 20 mg/kg): 2530 ng/g and 3270 ng/g
Brain Concentration/Plasma Concentration, Individuals (Brain distribution study; 2 hr, 20 mg/kg): 0.347 and 0.335
brain Concentration, Individuals (Brain distribution study; 2 hr, 20 mg/kg): 953 ng/g and 1530 ng/g
Brain Concentration/Plasma Concentration, Individuals (Brain distribution study; 4 hr, 20 mg/kg): 0.269 and 0.250
brain Concentration, Individuals (Brain distribution study; 4 hr, 20 mg/kg): 184 ng/g and 427 ng/g and 199 ng/g
Brain Concentration/Plasma Concentration, Individuals (Brain distribution study; 8 hr, 20 mg/kg): 0.175 and 0.244
brain Concentration, Individuals (Brain distribution study; 8 hr, 20 mg/kg): 85.3 ng/g and 18.2 ng/g and 45.2 ng/g
AUCINF (Brain distribution study; brain): 7213 ng·h/g
AUClast (Brain distribution study; brain): 7128 ng·h/g
concentration at 0.083 hr (Brain distribution study; male, C57BL/6, mouse, brain, po, 20 mg/kg, 0.083 hr, N=3, read-out: brain Concentration, Mean): 1820 ng/g
concentration at 0.083 hr (Brain distribution study; male, C57BL/6, mouse, brain, po, 20 mg/kg, 0.083 hr, read-out: brain Concentration, Individuals): 1540 ng/g
concentration at 0.167 hr (Brain distribution study; male, C57BL/6, mouse, brain, po, 20 mg/kg, 0.167 hr, N=3, read-out: brain Concentration, Mean): 2940 ng/g
concentration at 0.167 hr (Brain distribution study; male, C57BL/6, mouse, brain, po, 20 mg/kg, 0.167 hr, read-out: brain Concentration, Individuals): 3180 ng/g
concentration at 0.333 hr (Brain distribution study; male, C57BL/6, mouse, brain, po, 20 mg/kg, 0.333 hr, N=3, read-out: brain Concentration, Mean): 3690 ng/g
concentration at 0.333 hr (Brain distribution study; male, C57BL/6, mouse, brain, po, 20 mg/kg, 0.333 hr, read-out: brain Concentration, Individuals): 3630 ng/g
concentration at 0.5 hr (Brain distribution study; male, C57BL/6, mouse, brain, po, 20 mg/kg, 0.5 hr, N=3, read-out: brain Concentration, Mean): 3600 ng/g
concentration at 0.5 hr (Brain distribution study; male, C57BL/6, mouse, brain, po, 20 mg/kg, 0.5 hr, read-out: brain Concentration, Individuals): 3730 ng/g
concentration at 0.75 hr (Brain distribution study; male, C57BL/6, mouse, brain, po, 20 mg/kg, 0.75 hr, N=3, read-out: brain Concentration, Mean): 3250 ng/g
concentration at 0.75 hr (Brain distribution study; male, C57BL/6, mouse, brain, po, 20 mg/kg, 0.75 hr, read-out: brain Concentration, Individuals): 3300 ng/g
concentration at 1 hr (Brain distribution study; male, C57BL/6, mouse, brain, po, 20 mg/kg, 1 hr, N=3, read-out: brain Concentration, Mean): 2910 ng/g
concentration at 1 hr (Brain distribution study; male, C57BL/6, mouse, brain, po, 20 mg/kg, 1 hr, read-out: brain Concentration, Individuals): 2920 ng/g
concentration at 2 hr (Brain distribution study; male, C57BL/6, mouse, brain, po, 20 mg/kg, 2 hr, N=3, read-out: brain Concentration, Mean): 1140 ng/g
concentration at 2 hr (Brain distribution study; male, C57BL/6, mouse, brain, po, 20 mg/kg, 2 hr, read-out: brain Concentration, Individuals): 934 ng/g
concentration at 4 hr (Brain distribution study; male, C57BL/6, mouse, brain, po, 20 mg/kg, 4 hr, N=3): 270 ng/g
concentration at 8 hr (Brain distribution study; male, C57BL/6, mouse, brain, po, 20 mg/kg, 8 hr, N=3): 49.6 ng/g
Kp (Brain distribution study; male, C57BL/6, mouse, brain/plasma, po, 20 mg/kg, AUCbrain/AUCplasma, heading: AUCbrain/AUCplasma): 25.1%
Kp at 0.083 hr (Brain distribution study; male, C57BL/6, mouse, brain/plasma, po, 20 mg/kg, 0.083 hr, N=3, read-out: Brain Concentration/Plasma Concentration, Mean): 0.0718
Kp at 0.083 hr (Brain distribution study; male, C57BL/6, mouse, brain/plasma, po, 20 mg/kg, 0.083 hr, read-out: Brain Concentration/Plasma Concentration, Individuals): 0.0691
Kp at 0.167 hr (Brain distribution study; male, C57BL/6, mouse, brain/plasma, po, 20 mg/kg, 0.167 hr, N=3, read-out: Brain Concentration/Plasma Concentration, Mean): 0.136
Kp at 0.167 hr (Brain distribution study; male, C57BL/6, mouse, brain/plasma, po, 20 mg/kg, 0.167 hr, read-out: Brain Concentration/Plasma Concentration, Individuals): 0.13
Kp at 0.333 hr (Brain distribution study; male, C57BL/6, mouse, brain/plasma, po, 20 mg/kg, 0.333 hr, N=3, read-out: Brain Concentration/Plasma Concentration, Mean): 0.203
Kp at 0.333 hr (Brain distribution study; male, C57BL/6, mouse, brain/plasma, po, 20 mg/kg, 0.333 hr, read-out: Brain Concentration/Plasma Concentration, Individuals): 0.191
Kp at 0.5 hr (Brain distribution study; male, C57BL/6, mouse, brain/plasma, po, 20 mg/kg, 0.5 hr, N=3, read-out: Brain Concentration/Plasma Concentration, Mean): 0.257
Kp at 0.5 hr (Brain distribution study; male, C57BL/6, mouse, brain/plasma, po, 20 mg/kg, 0.5 hr, read-out: Brain Concentration/Plasma Concentration, Individuals): 0.259
Kp at 0.75 hr (Brain distribution study; male, C57BL/6, mouse, brain/plasma, po, 20 mg/kg, 0.75 hr, N=3, read-out: Brain Concentration/Plasma Concentration, Mean): 0.318
Kp at 0.75 hr (Brain distribution study; male, C57BL/6, mouse, brain/plasma, po, 20 mg/kg, 0.75 hr, read-out: Brain Concentration/Plasma Concentration, Individuals): 0.344
Kp at 1 hr (Brain distribution study; male, C57BL/6, mouse, brain/plasma, po, 20 mg/kg, 1 hr, N=3, read-out: Brain Concentration/Plasma Concentration, Mean): 0.296
Kp at 1 hr (Brain distribution study; male, C57BL/6, mouse, brain/plasma, po, 20 mg/kg, 1 hr, read-out: Brain Concentration/Plasma Concentration, Individuals): 0.278
Kp at 2 hr (Brain distribution study; male, C57BL/6, mouse, brain/plasma, po, 20 mg/kg, 2 hr, N=3, read-out: Brain Concentration/Plasma Concentration, Mean): 0.348
Kp at 2 hr (Brain distribution study; male, C57BL/6, mouse, brain/plasma, po, 20 mg/kg, 2 hr, read-out: Brain Concentration/Plasma Concentration, Individuals): 0.362
Kp at 4 hr (Brain distribution study; male, C57BL/6, mouse, brain/plasma, po, 20 mg/kg, 4 hr, N=3, read-out: Brain Concentration/Plasma Concentration, Mean): 0.231
Kp at 4 hr (Brain distribution study; male, C57BL/6, mouse, brain/plasma, po, 20 mg/kg, 4 hr, read-out: Brain Concentration/Plasma Concentration, Individuals): 0.174
Kp at 8 hr (Brain distribution study; male, C57BL/6, mouse, brain/plasma, po, 20 mg/kg, 8 hr, N=3, read-out: Brain Concentration/Plasma Concentration, Mean): 0.233
Kp at 8 hr (Brain distribution study; male, C57BL/6, mouse, brain/plasma, po, 20 mg/kg, 8 hr, read-out: Brain Concentration/Plasma Concentration, Individuals): 0.28
Cmax (Brain distribution study; mouse, brain): 3690 ng/g
MRT inf (Brain distribution study; mouse, brain): 1.57 h
Tmax (Brain distribution study; mouse, brain): 0.333 h
half-life (Brain distribution study; mouse, brain): 1.18 h
effect on IR-induced comet tail, ICL detection (in words) ([2]; MGMT−/MMR+ cells, 200 μM for 24 h, 10 Gy): reduced the % DNA in the tail to levels similar to those seen for 0.1 μM MMC
comet tailing in the absence of IR (in words) ([2]; MGMT−/MMR+ cells, TMZ and KL-50 200 μM, MMC 0.1 or 50 μM): induced tailing
DNA damage in unirradiated samples (in words) ([2]; MGMT−/MMR− cells, 200 μM, 2, 8 or 24 h, 0 Gy): induced maximal damage at 2 h, which decreased over time
rate of ICL formation, DNA mobility after IR (in words) ([2]; MGMT−/MMR− cells, 200 μM, 2, 8 or 24 h, 10 Gy): time-dependent decrease in DNA mobility
cells survived (fraction) [3]: less than 10^−4
